# Molecular target: human Nav1.7 (Homo sapiens (Human), UniProt Q15858)
# Assay: Nav 1.7 In Vitro PX Assay (PatchXpress whole cell voltage clamp)
# Type: cell-based
# Settings: in-vitro Nav 1.7 PX data
# Description: HEK 293 cells stably transfected with human Nav1.7 were recorded in whole cell voltage clamp mode with the PatchXpress automated electrophysiology system (Molecular Devices, LLC, Sunnyvale, Calif.). Compound effects were measured on a partially inactivated state of the sodium channel. Cells were clamped to a holding potential yielding 20 to 50% inactivation. To elicit sodium current, channels were activated by pulsing to −10 mV for 20 msec. This voltage protocol was repeated at a rate of 0.1 Hz throughout the experiment. A single concentration of test compound was applied to cells for a duration of 3 minutes. Peak sodium current was measured at the end of the compound addition period to determine percent inhibition. Three to five cells were tested per concentration, and IC50 curves were fitted to percent inhibition as a function of concentration.
# Sequence of human Nav1.7 (Q15858 whole entry): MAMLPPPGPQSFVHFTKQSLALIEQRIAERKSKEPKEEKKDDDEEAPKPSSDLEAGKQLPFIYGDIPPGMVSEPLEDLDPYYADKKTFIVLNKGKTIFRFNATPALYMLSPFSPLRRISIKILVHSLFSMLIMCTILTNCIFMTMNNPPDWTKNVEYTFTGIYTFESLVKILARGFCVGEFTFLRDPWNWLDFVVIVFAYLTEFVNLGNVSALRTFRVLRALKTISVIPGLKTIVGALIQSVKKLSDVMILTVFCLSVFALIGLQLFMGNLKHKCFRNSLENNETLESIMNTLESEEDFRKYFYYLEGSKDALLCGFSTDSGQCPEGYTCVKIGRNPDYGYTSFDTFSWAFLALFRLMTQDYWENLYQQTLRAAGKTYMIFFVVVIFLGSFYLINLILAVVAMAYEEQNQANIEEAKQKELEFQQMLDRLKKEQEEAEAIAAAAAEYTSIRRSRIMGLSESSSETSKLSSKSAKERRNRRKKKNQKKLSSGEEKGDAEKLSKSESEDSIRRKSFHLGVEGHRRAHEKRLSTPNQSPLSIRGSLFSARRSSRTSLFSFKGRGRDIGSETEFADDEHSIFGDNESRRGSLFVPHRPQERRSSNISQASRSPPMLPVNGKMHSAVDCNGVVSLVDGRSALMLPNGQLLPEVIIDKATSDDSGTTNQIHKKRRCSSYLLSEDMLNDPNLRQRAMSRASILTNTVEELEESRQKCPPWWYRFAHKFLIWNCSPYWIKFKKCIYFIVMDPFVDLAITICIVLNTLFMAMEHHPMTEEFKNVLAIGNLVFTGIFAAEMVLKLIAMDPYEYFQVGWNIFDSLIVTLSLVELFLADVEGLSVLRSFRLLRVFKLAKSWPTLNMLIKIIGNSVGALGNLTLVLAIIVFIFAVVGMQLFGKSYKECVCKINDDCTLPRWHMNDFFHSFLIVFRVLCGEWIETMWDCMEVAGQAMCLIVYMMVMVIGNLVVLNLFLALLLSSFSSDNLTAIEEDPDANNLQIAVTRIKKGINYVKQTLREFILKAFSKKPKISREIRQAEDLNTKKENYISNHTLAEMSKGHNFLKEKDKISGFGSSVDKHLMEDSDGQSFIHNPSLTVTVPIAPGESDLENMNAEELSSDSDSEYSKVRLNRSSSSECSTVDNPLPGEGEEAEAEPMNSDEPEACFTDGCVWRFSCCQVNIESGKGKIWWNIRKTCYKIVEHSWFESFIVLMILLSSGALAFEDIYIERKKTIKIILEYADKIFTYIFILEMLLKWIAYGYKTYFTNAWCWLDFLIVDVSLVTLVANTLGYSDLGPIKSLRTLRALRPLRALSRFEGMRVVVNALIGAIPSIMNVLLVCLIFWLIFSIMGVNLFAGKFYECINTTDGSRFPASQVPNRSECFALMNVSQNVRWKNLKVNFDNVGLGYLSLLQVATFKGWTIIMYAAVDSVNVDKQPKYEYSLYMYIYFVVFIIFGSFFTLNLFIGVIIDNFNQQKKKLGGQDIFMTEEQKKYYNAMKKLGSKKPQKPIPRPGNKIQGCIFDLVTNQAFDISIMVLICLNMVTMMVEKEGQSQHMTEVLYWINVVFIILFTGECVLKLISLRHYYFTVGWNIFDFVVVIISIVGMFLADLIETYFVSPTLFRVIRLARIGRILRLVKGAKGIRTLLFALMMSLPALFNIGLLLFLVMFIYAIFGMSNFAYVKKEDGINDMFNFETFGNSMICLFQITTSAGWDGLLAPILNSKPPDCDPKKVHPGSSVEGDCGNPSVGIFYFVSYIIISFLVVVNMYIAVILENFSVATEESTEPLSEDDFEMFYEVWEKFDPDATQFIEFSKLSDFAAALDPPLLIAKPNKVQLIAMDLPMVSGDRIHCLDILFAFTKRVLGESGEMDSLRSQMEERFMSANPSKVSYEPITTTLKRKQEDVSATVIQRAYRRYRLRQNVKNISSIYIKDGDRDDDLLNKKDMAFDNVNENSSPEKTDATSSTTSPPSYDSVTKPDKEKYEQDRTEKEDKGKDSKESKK
row,Structure (SMILES),IC50 [nM]
1,"CNC(=O)N(c1ccc(S(=O)(=O)Nc2ncccn2)cn1)c1cc(Cl)c(-c2ccc(F)c(F)c2)cc1OC [Example 1-76, 6-((2-chloro-3′,4′-difluoro-5-methoxy-4-biphenylyl)(methylcarbamoyl)amino)-N-2-pyrimidinyl-3-pyridinesulfonamide]",116
2,"CNC(=O)N(c1ccc(S(=O)(=O)Nc2ccon2)cn1)c1cc(Cl)c(-c2cc(C)c(F)c(OC)c2)cc1OC [Example 1-50, 6-((2-chloro-4′-fluoro-3′,5-dimethoxy-5′-methyl-4-biphenylyl)(methylcarbamoyl)amino)-N-3-isoxazolyl-3-pyridinesulfonamide]",49
3,"CNC(=O)N(c1ccc(S(=O)(=O)Nc2ncccn2)cn1)c1ccc(-c2ccc(F)c(C(F)(F)F)c2)cc1OC [Example 2-8, 6-((4′-fluoro-3-methoxy-3′-(trifluoromethyl)-4-biphenylyl)(methylcarbamoyl)amino)-N-2-pyrimidinyl-3-pyridinesulfonamide]",17
4,"CNC(=O)N(c1ccc(S(=O)(=O)Nc2ccon2)cn1)c1cc(F)c(-c2cc(F)cc(Cl)c2)cc1OC [Example 1-5, 6-((3′-chloro-2,5′-difluoro-5-methoxy-4-biphenylyl)(methylcarbamoyl)amino)-N-3-isoxazolyl-3-pyridinesulfonamide]",92
5,"CNC(=O)N(c1ccc(S(=O)(=O)Nc2ccon2)cn1)c1cc(F)c(-c2ccc(Cl)c(F)c2)cc1OC [Example 1-20, 6-((4′-chloro-2,3′-difluoro-5-methoxy-4-biphenylyl)(methylcarbamoyl)amino)-N-3-isoxazolyl-3-pyridinesulfonamide]",50
6,"CNC(=O)N(c1ccc(S(=O)(=O)Nc2ccon2)cn1)c1ccc(-c2ccc(Cl)c(C)c2)cc1OC [Example 1-73, 6-((4′-chloro-3-methoxy-3′-methyl-4-biphenylyl)(methylcarbamoyl)amino)-N-3-isoxazolyl-3-pyridinesulfonamide]",65
7,"CNC(=O)N(c1ccc(S(=O)(=O)Nc2ncccn2)cn1)c1ccc(-c2ccc(F)c(OC(F)(F)F)c2)cc1OC [Example 2-7, 6-((4′-fluoro-3-methoxy-3′-(trifluoromethoxy)-4-biphenylyl)(methylcarbamoyl)amino)-N-2-pyrimidinyl-3-pyridinesulfonamide]",4
8,"CNC(=O)N(c1ccc(S(=O)(=O)Nc2cccnn2)cn1)c1cc(Cl)c(-c2ccc(F)c(OCC(F)(F)F)c2)cc1OC [Example 2-4, 6-((2-chloro-4′-fluoro-5-methoxy-3′-(2,2,2-trifluoroethoxy)-4-biphenylyl)(methylcarbamoyl)amino)-N-3-pyridazinyl-3-pyridinesulfonamide]",54
9,"CNC(=O)N(c1ccc(S(=O)(=O)Nc2ccon2)cn1)c1cc(Cl)c(-c2ccc(C(F)(F)F)cc2)cc1OC [Example 1-45, 6-((2-chloro-5-methoxy-4′-(trifluoromethyl)-4-biphenylyl)(methylcarbamoyl)amino)-N-3-isoxazolyl-3-pyridinesulfonamide]",65
10,"CNC(=O)N(c1ccc(S(=O)(=O)Nc2ccon2)cn1)c1cc(Cl)c(-c2cccc(OC(C)C)c2)cc1OC [Example 1-48, 6-((2-chloro-5-methoxy-3′-(1-methylethoxy)-4-biphenylyl)(methylcarbamoyl)amino)-N-3-isoxazolyl-3-pyridinesulfonamide]",71
11,"CNC(=O)N(c1ccc(S(=O)(=O)Nc2ccon2)cn1)c1cc(Cl)c(-c2ccc(Cl)c(C#N)c2)cc1OC [Example 1-54, 6-((2,4′-dichloro-3′-cyano-5-methoxy-4-biphenylyl)(methylcarbamoyl)amino)-N-3-isoxazolyl-3-pyridinesulfonamide]",52
12,"CNC(=O)N(c1ccc(S(=O)(=O)Nc2ccon2)cn1)c1cc(Cl)c(-c2cccc(OCC(F)(F)F)c2)cc1OC [Example 1-37, 6-((2-chloro-5-methoxy-3′-(2,2,2-trifluoroethoxy)-4-biphenylyl)(methylcarbamoyl)amino)-N-3-isoxazolyl-3-pyridinesulfonamide]",11
13,"CNC(=O)N(c1ccc(S(=O)(=O)Nc2ncccn2)cn1)c1cc(Cl)c(-c2ccc(Cl)c(OC)c2)cc1OC [Example 1-77, 6-((2,4′-dichloro-3′,5-dimethoxy-4-biphenylyl)(methylcarbamoyl)amino)-N-2-pyrimidinyl-3-pyridinesulfonamide]",70
14,"CNC(=O)N(c1ccc(S(=O)(=O)Nc2ccon2)cn1)c1cc(Cl)c(-c2cc(Cl)cnc2OC)cc1OC [Example 1-41, 6-((5-chloro-4-(5-chloro-2-methoxy-3-pyridinyl)-2-methoxyphenyl)(methylcarbamoyl)amino)-N-3-isoxazolyl-3-pyridinesulfonamide]",166
15,"CNC(=O)N(c1ccc(S(=O)(=O)Nc2ccon2)cn1)c1cc(F)c(-c2cccc(C3CC3)c2)cc1OC [Example 1-13, 6-((3′-cyclopropyl-2-fluoro-5-methoxy-4-biphenylyl)(methylcarbamoyl)amino)-N-3-isoxazolyl-3-pyridinesulfonamide]",46
16,"CNC(=O)N(c1ccc(S(=O)(=O)Nc2ncccn2)cn1)c1cc(F)c(-c2ccc(F)c(C(F)(F)F)c2)cc1OC [Example 1-85, 6-((2,4′-difluoro-5-methoxy-3′-(trifluoromethyl)-4-biphenylyl)(methylcarbamoyl)amino)-N-2-pyrimidinyl-3-pyridinesulfonamide]",32
17,"CNC(=O)N(c1ccc(S(=O)(=O)Nc2ccon2)cn1)c1cc(Cl)c(-c2cc(C(F)(F)F)ccc2F)cc1OC [Example 1-55, 6-((2-chloro-2′-fluoro-5-methoxy-5′-(trifluoromethyl)-4-biphenylyl)(methylcarbamoyl)amino)-N-3-isoxazolyl-3-pyridinesulfonamide]",17
18,"CNC(=O)N(c1ccc(S(=O)(=O)Nc2ccon2)cn1)c1cc(Cl)c(-c2cc(OC)cc(OC)c2)cc1OC [Example 1-64, 6-((2-chloro-3′,5,5′-trimethoxy-4-biphenylyl)(methylcarbamoyl)amino)-N-3-isoxazolyl-3-pyridinesulfonamide]",78
19,"CNC(=O)N(c1ccc(S(=O)(=O)Nc2ccon2)cn1)c1ccc(-c2ccc(F)c(C)c2)cc1OC [Example 1-71, 6-((4′-fluoro-3-methoxy-3′-methyl-4-biphenylyl)(methylcarbamoyl)amino)-N-3-isoxazolyl-3-pyridinesulfonamide]",398
20,"CCCCCCCCCCCCCCc1cc(OC)c(N(C(=O)NC)c2ccc(S(=O)(=O)Nc3ncccn3)cn2)cc1F [Example 2-11, 6-(1-(5-Fluoro-2-methoxy-4-tetradecylphenyl)-3-methylureido)-N-(pyrimidin-2-yl)pyridine-3-sulfonamide]",14

# Next, values leading:
row,IC50 [nM],Structure (SMILES)
1,76,"CNC(=O)N(c1ccc(S(=O)(=O)Nc2ccnc(C)n2)cn1)c1cc(Cl)c(-c2ccc(F)c(OCC(F)(F)F)c2)cc1OC [Example 3-5, 6-((2-chloro-4′-fluoro-5-methoxy-3′-(2,2,2-trifluoroethoxy)-4-biphenylyl)(methylcarbamoyl)amino)-N-(2-methyl-4-pyrimidinyl)-3-pyridinesulfonamide]"
2,442,"CNC(=O)N(c1ccc(S(=O)(=O)Nc2ccon2)cn1)c1cc(-c2ccc(C)c(Cl)c2)ccc1OC [Example 4-5, 6-((3′-chloro-4-methoxy-4′-methyl-3-biphenylyl)(methylcarbamoyl)amino)-N-3-isoxazolyl-3-pyridinesulfonamide]"
3,31,"CNC(=O)N(c1ccc(S(=O)(=O)Nc2cnsn2)cn1)c1cc(Cl)c(-c2ccc(F)c(OCC(F)(F)F)c2)cc1OC [Example 3-2, 6-((2-chloro-4′-fluoro-5-methoxy-3′-(2,2,2-trifluoroethoxy)-4-biphenylyl)(methylcarbamoyl)amino)-N-1,2,5-thiadiazol-3-yl-3-pyridinesulfonamide]"
4,76,"CNC(=O)N(c1ccc(S(=O)(=O)Nc2ccon2)cn1)c1cc(-c2ccc(C)c(Cl)c2)c(Cl)cc1OC [Example 4-9, 6-((3′,6-dichloro-4-methoxy-4′-methyl-3-biphenylyl)(methylcarbamoyl)amino)-N-3-isoxazolyl-3-pyridinesulfonamide]"
5,90,"CNC(=O)N(c1ccc(S(=O)(=O)Nc2ccon2)cn1)c1cc(-c2cccc(C(F)(F)F)c2)c(Cl)cc1OC [Example 4-6, 6-((6-chloro-4-methoxy-3′-(trifluoromethyl)-3-biphenylyl)(methylcarbamoyl)amino)-N-3-isoxazolyl-3-pyridinesulfonamide]"
6,53,"CNC(=O)N(c1ccc(S(=O)(=O)Nc2cccc(F)n2)cn1)c1cc(Cl)c(-c2ccc(F)c(C(F)(F)F)c2)cc1OC [Example 3-9, 6-((2-chloro-4′-fluoro-5-methoxy-3′-(trifluoromethyl)-4-biphenylyl)(methylcarbamoyl)amino)-N-(6-fluoro-2-pyridinyl)-3-pyridinesulfonamide]"
7,10,"COc1cc(-c2ccc(Cl)c(F)c2)c(Cl)cc1N(C(N)=O)c1ccc(S(=O)(=O)Nc2ccon2)cn1 [Example 5-2, 6-(carbamoyl(2,4′-dichloro-3′-fluoro-5-methoxy-4-biphenylyl)amino)-N-3-isoxazolyl-3-pyridinesulfonamide]"
8,31,"COc1cc(-c2cc(Cl)cc(C#N)c2)c(Cl)cc1N(C(N)=O)c1ccc(S(=O)(=O)Nc2ccon2)cn1 [Example 5-3, 6-(carbamoyl(2,3′-dichloro-5′-cyano-5-methoxy-4-biphenylyl)amino)-N-3-isoxazolyl-3-pyridinesulfonamide]"
9,24,"CNC(=O)N(c1ccc(S(=O)(=O)Nc2ccncn2)cn1)c1cc(Cl)c(-c2ccc(F)c(C(F)(F)F)c2)cc1OC [Example 3-12, 6-((2-chloro-4′-fluoro-5-methoxy-3′-(trifluoromethyl)-4-biphenylyl)(methylcarbamoyl)amino)-N-4-pyrimidinyl-3-pyridinesulfonamide]"

# From US10668067B2, “Pyridine sulfonamides” (AMGEN INC., priority 2016, dated 2020)
